PubChem BioAssay (NCI)
Several values for one entry are separate records, joined by “and”; a condition that tells them apart may be missing. Equal entries are not always repeated.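 How tested: cells in 96-well plates exposed to compound for 48 hours at five concentrations. The concentration for 50% growth inhibition is given as GI50. TGI: total growth inhibition.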

Experiments:
Test in all cases: growth of human tumour cells (NCI), 48 h
786-0 renal = system: 786-0 renal
CCRF-CEM leukemia = system: CCRF-CEM leukemia
HT29 colon = system: HT29 colon
IGROV1 ovarian = system: IGROV1 ovarian
MDA-MB-435 = system: MDA-MB-435
NCI-H460 lung = system: NCI-H460 lung
OVCAR-4 ovarian = system: OVCAR-4 ovarian
SF-295 CNS = system: SF-295 CNS
SNB-19 CNS = system: SNB-19 CNS
SW-620 colon = system: SW-620 colon

Compound | GI50 (786-0 renal) | TGI (786-0 renal) | GI50 (CCRF-CEM leukemia) | GI50 (HT29 colon) | TGI (HT29 colon) | GI50 (IGROV1 ovarian) | TGI (IGROV1 ovarian) | GI50 (MDA-MB-435) | TGI (MDA-MB-435) | GI50 (NCI-H460 lung) | TGI (NCI-H460 lung) | GI50 (OVCAR-4 ovarian) | TGI (OVCAR-4 ovarian) | TGI (SF-295 CNS) | GI50 (SNB-19 CNS) | TGI (SNB-19 CNS) | GI50 (SW-620 colon) | TGI (SW-620 colon) | TGI (CCRF-CEM leukemia) | GI50 (SF-295 CNS)
COc1cc2c(cc1OCCCCOc1cc3c(cc1OC)C(=O)N1CCC[C@H]1CN3)N=C[C@@H]1CCCN1C2=O | 2.94 µM | > 100 µM | 0.243 µM | 2.37 µM | > 23.2 µM | 2.42 µM | > 27 µM | 0.464 µM | 10.4 µM | 2.92 µM | > 100 µM | 4.61 µM | > 100 µM | 1.2 µM | 3.16 µM | > 100 µM | 0.931 µM | > 22.9 µM |  | 
COc1cc2nc(N3CCCC3)nc(NCC3CCCCC3)c2cc1OC | 1.47 µM | 3.11 µM | 1.09 µM | 0.435 µM | 1.69 µM | 1.48 µM | 3.06 µM | 1.11 µM | 2.33 µM | 1.75 µM | 3.35 µM | 1.25 µM | 2.71 µM | 2.71 µM | 1.59 µM | 2.99 µM | 1.39 µM | 2.89 µM | 3.5 µM | 1.38 µM
C[C@]12CC[C@H]3[C@@H](CCC4=CC(=O)CC[C@@H]43)[C@@H]1CC[C@@H]2OC(=O)CCc1ccccc1 | 23.9 µM | 50.8 µM | 17.2 µM | 18.2 µM | 56.5 µM | 20.5 µM | 42 µM | 24.5 µM | > 80.2 µM | 17.1 µM | 35.6 µM | 18.8 µM | 40.4 µM | 30.6 µM | 18.4 µM | 37.5 µM | 20.3 µM | 47.2 µM | 43.5 µM | 15.5 µM
Cc1ccc(NC(=O)/C=C/c2ccccc2)c(C(N)=O)c1 | 6.41 µM | 53 µM | 2.33 µM | 2.36 µM | 30.8 µM | 4.89 µM | > 56.1 µM | 0.526 µM | 2.44 µM | 3.46 µM | 25.9 µM | 9.17 µM | > 100 µM | > 56.7 µM | 5.81 µM | > 100 µM | 2.5 µM | > 100 µM | > 29.2 µM | 2.79 µM
CC1=C(N2CC2)C(=O)c2nc3n(c2C1=O)CCC3OC(=O)CCl (configuration not stated) |  | 0.191 µM |  |  | 0.337 µM |  | 0.928 µM |  | 0.112 µM |  | 0.123 µM |  | 0.218 µM | 0.204 µM |  | 0.684 µM |  | 0.191 µM | 3.65 µM | 
CN(C)c1ccc(/C=C\c2cccc[n+]2C)cc1 | 16.3 µM | > 100 µM | 4.54 µM | 5.01 µM | > 100 µM | 8.66 µM | > 100 µM | 4.16 µM | > 100 µM | 15.2 µM | > 100 µM | 4.28 µM | 62.5 µM | > 100 µM | 4.83 µM | > 100 µM | 3.57 µM | > 100 µM | > 100 µM | 4.33 µM
C[C@]12CCC3[C@@H](CC[C@@H]4c5nonc5CC[C@]34C)C1CCC(=O)N2 (some centres not stated) |  | > 100 µM |  |  | > 100 µM |  | > 100 µM | > 100 µM | > 100 µM |  | > 100 µM |  | > 100 µM | > 100 µM |  | > 100 µM |  | > 100 µM | > 100 µM | 
CC(C)(C)c1n[nH]c(=S)n(/N=C/c2ccc(F)c(Oc3ccccc3)c2)c1=O | 34.9 µM | > 100 µM | 32.7 µM | 43.4 µM | > 100 µM | 35.9 µM | > 100 µM | 38 µM | > 100 µM | 31 µM | > 100 µM | 23.8 µM | 96.9 µM | > 100 µM | 40.9 µM | > 100 µM | 34.7 µM | > 100 µM | > 100 µM | 15.3 µM
COc1ccc(-c2cc(-c3ccccc3)nc(SCCCC(=O)NO)n2)cc1 | 0.573 µM | 3.49 µM | 0.387 µM | 1.64 µM | 10.9 µM | 1.11 µM | 3.83 µM | 0.995 µM | 3.11 µM | 0.468 µM | 5.65 µM | 1.26 µM | 9.01 µM | 2.54 µM | 2.19 µM | 9.27 µM | 0.484 µM | 4.85 µM | 13.5 µM | 0.826 µM
Cc1ccc(C(=O)Nc2cccc(C(F)(F)F)c2)cc1Nc1nc(-c2cccnc2)nc2c1cnn2C | 2.67 µM and 1.64 µM | 8.01 µM and 5.12 µM | 3.02 µM and 2.44 µM | 1.48 µM and 0.488 µM | 35.1 µM and 4.49 µM | 1.74 µM and 0.851 µM | 8.71 µM and 5 µM | 1.64 µM and 1.45 µM | 4.74 µM and 4.95 µM | 2.84 µM and 2.54 µM | 12.5 µM and 7.19 µM | 4.56 µM and 2.59 µM | 30.3 µM and > 10 µM | 4.99 µM and 4.47 µM | 4.16 µM and 3.18 µM | 17.1 µM and > 10 µM | 1.74 µM and 1.51 µM | 13.4 µM and > 10 µM | > 100 µM | 2.12 µM and 1.84 µM
O=C1C=C(Br)c2c(-c3ccccc3)oc3cccc1c23 |  | > 100 µM |  |  | > 100 µM |  | > 100 µM |  | > 100 µM |  | > 100 µM |  | > 100 µM | > 100 µM |  | > 100 µM |  | > 100 µM | > 47.6 µM | 
Cc1ccc(-c2cc(-c3ccc(C)cc3)nc(NCCNc3ccnc4cc(Cl)ccc34)n2)cc1 | 1.79 µM | 3.67 µM |  | 1.74 µM | 3.37 µM | 1.52 µM | 3.16 µM | 1.77 µM | 3.35 µM | 1.91 µM | 3.7 µM | 1.63 µM | 3.24 µM | 3.49 µM | 1.89 µM | 3.76 µM | 1.71 µM | 3.49 µM |  | 1.8 µM
O=[N+]([O-])c1cccc(-c2nc3sccn3c2-c2ccnc(NCCCNS(=O)(=O)c3cccc(F)c3)n2)c1 | 7.97 µM | 45.6 µM | 1.3 µM | 3.12 µM | > 100 µM | 2.71 µM | 11.6 µM | 2.98 µM | 11.6 µM | 3.34 µM | > 100 µM | 1.64 µM | 7.64 µM | 7.79 µM | 4.34 µM | 61.8 µM | 4.12 µM | > 100 µM | > 100 µM | 2.52 µM
